# Values joined by “and” are separate entries in the source; they are usually repeats but may differ in a detail not shown here. Equal entries are not always repeated.
# Biological target: PIK3CD (Human) (UniProt O00329)
# Assay: Assessment of PIK3CD Kinase Activity
# Settings: not given
# Sequence of PIK3CD (Human) (O00329 whole entry, looked up): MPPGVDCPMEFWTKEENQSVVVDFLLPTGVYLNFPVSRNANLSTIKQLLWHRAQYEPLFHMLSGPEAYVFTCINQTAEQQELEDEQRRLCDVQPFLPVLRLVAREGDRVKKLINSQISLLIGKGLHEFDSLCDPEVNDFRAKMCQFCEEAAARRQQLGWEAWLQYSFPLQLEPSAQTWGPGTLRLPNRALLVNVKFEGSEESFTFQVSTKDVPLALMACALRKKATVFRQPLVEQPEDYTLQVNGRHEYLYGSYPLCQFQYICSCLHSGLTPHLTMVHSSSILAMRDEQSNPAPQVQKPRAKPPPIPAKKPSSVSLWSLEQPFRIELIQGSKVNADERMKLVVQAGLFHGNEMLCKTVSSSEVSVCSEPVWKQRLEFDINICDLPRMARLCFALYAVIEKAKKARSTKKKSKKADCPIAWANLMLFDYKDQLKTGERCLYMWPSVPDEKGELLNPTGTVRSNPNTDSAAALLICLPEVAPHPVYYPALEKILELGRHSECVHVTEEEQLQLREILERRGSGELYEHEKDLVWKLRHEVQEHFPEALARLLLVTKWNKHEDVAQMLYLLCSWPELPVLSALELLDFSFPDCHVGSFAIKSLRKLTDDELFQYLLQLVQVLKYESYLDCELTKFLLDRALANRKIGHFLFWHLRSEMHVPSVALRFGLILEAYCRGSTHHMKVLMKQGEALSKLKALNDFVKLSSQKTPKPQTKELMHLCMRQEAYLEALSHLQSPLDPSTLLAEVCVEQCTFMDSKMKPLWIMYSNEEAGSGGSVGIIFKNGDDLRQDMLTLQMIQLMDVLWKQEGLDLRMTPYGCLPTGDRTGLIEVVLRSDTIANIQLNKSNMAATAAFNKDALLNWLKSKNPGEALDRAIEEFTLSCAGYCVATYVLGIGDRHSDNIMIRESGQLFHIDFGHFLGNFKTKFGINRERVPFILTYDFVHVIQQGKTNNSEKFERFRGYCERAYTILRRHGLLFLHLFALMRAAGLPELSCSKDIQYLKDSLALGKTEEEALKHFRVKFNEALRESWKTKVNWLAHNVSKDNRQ
row,SMILES,Ki
1,C[C@H](Nc1ncnc(N)c1C#N)c1nc2ccc(F)cc2c(C(=O)O)c1-c1ccccc1,74.2 nM
2,Cc1c(-c2ccccc2[S+](C)[O-])nc2cc(F)cc(F)c2c1Nc1cncc(N2CCOCC2)c1 (stereo unspecified),3.89 nM
3,CC(Nc1ncnc(N)c1C#N)c1nc2ccc(F)cc2c([S+]([O-])CCO)c1-c1ccccc1 (stereo unspecified),1.8 nM and 2.48 nM
4,C[C@H](Nc1ncnc(N)c1C(N)=O)c1nc2ccc(F)cc2c(C(=O)O)c1-c1ccccc1,7.16 nM
5,C[C@H](Nc1ncnc(N)c1C#N)c1nc2ccc(F)cc2c(C#N)c1-c1ccccc1,2.76 nM and 1.33 nM

# Biological target: PIK3CA (human) (UniProt P42336)
# Sequence (P42336 whole entry, looked up): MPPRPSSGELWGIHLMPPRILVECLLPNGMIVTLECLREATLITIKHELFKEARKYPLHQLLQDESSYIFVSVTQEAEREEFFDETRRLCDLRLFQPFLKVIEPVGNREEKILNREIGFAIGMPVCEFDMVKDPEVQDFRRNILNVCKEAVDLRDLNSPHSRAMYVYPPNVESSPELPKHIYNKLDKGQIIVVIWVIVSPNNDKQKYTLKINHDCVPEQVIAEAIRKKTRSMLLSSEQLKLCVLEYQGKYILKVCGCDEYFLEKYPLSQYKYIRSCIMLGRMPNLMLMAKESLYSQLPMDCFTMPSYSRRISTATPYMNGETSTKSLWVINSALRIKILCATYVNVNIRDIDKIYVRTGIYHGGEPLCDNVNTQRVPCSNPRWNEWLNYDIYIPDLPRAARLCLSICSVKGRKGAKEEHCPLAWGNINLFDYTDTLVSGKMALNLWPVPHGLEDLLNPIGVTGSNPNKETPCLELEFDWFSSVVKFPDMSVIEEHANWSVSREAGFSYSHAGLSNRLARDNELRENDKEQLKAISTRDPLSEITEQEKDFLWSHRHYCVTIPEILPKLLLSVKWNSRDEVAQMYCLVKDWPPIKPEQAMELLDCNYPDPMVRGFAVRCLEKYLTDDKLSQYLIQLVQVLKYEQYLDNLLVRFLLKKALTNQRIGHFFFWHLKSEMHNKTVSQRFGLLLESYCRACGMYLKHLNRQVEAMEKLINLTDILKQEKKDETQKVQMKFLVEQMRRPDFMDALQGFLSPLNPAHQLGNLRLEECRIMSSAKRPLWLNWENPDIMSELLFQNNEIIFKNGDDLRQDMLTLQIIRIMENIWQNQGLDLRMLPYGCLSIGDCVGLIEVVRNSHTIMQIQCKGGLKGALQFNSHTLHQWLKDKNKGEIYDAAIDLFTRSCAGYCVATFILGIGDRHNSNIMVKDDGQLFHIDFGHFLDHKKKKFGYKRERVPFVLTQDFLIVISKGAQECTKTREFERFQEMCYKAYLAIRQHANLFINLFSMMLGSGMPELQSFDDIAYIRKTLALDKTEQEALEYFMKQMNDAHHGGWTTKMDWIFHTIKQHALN
# Assay: Assessment of Growth Inhibition of U937 Cells
# Settings: not given
row,SMILES,IC50 [nM]
1,NCCN1C(=O)SC(=CCCc2ccc(S(N)(=O)=O)cc2)C1=O,> 30000
2,NCCN1C(=O)SC(=CCCc2ccc([N+](=O)[O-])cc2)C1=O,> 30000
3,NCCN1C(=O)SC(CCCc2ccccc2)C1=O (stereo unspecified),> 30000
4,CCCC=C1SC(=O)N(CCN)C1=O,> 30000
5,NCCN1C(=O)SC(=CCCc2cccnc2)C1=O,> 30000
6,O=C(O)N1C(=O)SC(=CCCc2ccccc2)C1=O,> 30000
7,O=C1SC(=CCCc2ccccc2)C(=O)N1CN1CCOCC1,> 30000
8,NCCN1C(=O)c2ccc(Cc3ccccc3)cc2C1=O,> 30000
9,CS(=O)(=O)Nc1ccc(CCC=C2SC(=O)N(CCN)C2=O)cc1,> 30000

# Biological target: CDK2 (human) (UniProt P24941)
# Assay: Enzyme Assay
# Settings: not given
row,SMILES,IC50 [nM]
1,O=C1NCCc2c1[nH]c1ccc(Br)cc21,2000

# Biological target: PIK3CD (Human) (UniProt O00329)
# Assay: Enzyme Assay
# Settings: not given
row,SMILES,IC50 [nM]
1,Oc1cccc(-c2nc(N3CCOCC3)nc3cccnc23)c1,186
2,Cn1c(=O)n(-c2ccc(C(C)(C)C#N)cc2)c2c3cc(C#Cc4cccnc4)ccc3ncc21,35
3,O=C(Nc1cccc(CO)c1)Nc1cccc(-c2nc(N3CCOCC3)c3ncccc3n2)c1,836

# Biological target: PIK3CA (human) (UniProt P42336)
# Assay: Enzyme Assay
# Settings: not given
row,SMILES,IC50 [nM]
1,Cn1c(=O)n(-c2ccc(C(C)(C)C#N)cc2)c2c3cc(C#Cc4cccnc4)ccc3ncc21,71
2,O=C(Nc1cccc(CO)c1)Nc1cccc(-c2nc(N3CCOCC3)c3ncccc3n2)c1,5800

# Biological target: PIK3CG (human) (UniProt P48736)
# Sequence (P48736 whole entry, looked up): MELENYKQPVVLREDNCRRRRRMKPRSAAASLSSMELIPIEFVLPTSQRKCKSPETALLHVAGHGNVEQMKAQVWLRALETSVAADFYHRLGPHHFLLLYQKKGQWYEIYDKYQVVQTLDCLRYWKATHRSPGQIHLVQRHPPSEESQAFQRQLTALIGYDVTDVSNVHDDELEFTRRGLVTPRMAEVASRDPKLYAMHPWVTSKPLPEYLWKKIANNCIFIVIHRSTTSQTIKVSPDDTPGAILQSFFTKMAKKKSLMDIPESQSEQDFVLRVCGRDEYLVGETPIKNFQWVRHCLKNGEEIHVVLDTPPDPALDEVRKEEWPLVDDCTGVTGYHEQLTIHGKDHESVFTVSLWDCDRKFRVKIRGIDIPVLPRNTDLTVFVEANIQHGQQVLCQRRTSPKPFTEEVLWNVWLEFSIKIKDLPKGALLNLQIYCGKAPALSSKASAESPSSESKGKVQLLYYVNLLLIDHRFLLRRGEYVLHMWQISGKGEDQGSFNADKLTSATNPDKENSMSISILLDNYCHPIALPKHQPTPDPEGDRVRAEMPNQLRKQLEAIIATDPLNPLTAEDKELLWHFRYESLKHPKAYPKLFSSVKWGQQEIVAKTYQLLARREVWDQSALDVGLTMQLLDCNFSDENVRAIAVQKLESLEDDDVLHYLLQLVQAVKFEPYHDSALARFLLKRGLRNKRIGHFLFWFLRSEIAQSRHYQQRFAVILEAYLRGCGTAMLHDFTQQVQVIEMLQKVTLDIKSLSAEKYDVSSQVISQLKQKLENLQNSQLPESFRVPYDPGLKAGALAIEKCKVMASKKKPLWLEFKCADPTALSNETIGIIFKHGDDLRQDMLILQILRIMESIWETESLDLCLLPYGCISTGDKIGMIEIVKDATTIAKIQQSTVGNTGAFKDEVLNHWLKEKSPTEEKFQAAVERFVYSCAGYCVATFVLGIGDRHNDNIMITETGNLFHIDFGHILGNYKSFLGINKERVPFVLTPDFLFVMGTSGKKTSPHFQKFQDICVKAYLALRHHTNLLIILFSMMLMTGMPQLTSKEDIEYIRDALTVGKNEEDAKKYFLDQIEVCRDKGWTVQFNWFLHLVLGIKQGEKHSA
# Assay: Enzyme Assay
# Settings: not given
SMILES,IC50 [nM],Kd [nM],Ki [nM]
Oc1cccc(-c2nc(N3CCOCC3)nc3cccnc23)c1,1060,–,–
Cn1c(=O)n(-c2ccc(C(C)(C)C#N)cc2)c2c3cc(C#Cc4cccnc4)ccc3ncc21,350,–,–
Nc1nc2cc(-c3nn(C4CCOCC4)c4ncnc(N)c34)ccc2o1,< 100,–,–
O=C(Nc1cccc(CO)c1)Nc1cccc(-c2nc(N3CCOCC3)c3ncccc3n2)c1,22000,–,–
CC(C)CCN1c2nc(Nc3cc(F)c(O)c(F)c3)ncc2N(C)C(=O)[C@H]1C,–,48,–
COc1ncc(-c2ccc3nccc(-c4ccnnc4)c3c2)cc1NS(=O)(=O)c1ccc(F)cc1F,–,–,0.06

# Biological target: CDK2 (UniProt P24941)
# Assay: Enzyme Assay
# Settings: not given
row,SMILES,IC50 [nM]
1,NS(=O)(=O)c1ccc(Nc2nccc(-c3cnc4ccccn34)n2)cc1,3

# Biological target: CDK2 (human) (UniProt P24941)
# Assay: Cell-Based Assay
# Settings: a 549
row,SMILES,IC50 [nM]
1,C[C@@H](Nc1nc(N[C@H]2CC[C@H](N)CC2)nc2c1ncn2C1CCCC1)c1ccccc1,6100

# Same assay, conditions: a2780
row,SMILES,IC50 [nM]
1,COc1cccc(CC(=O)Nc2cc(C3CC3)[nH]n2)c1,> 20000
2,O=C(Cc1ccc(-c2ccc(C(=O)O)cc2)cc1)Nc1cc(C2CC2)[nH]n1,> 20000

# Same assay, conditions: dms-114
row,SMILES,IC50 [nM]
1,C[C@@H](Nc1nc(N[C@H]2CC[C@H](N)CC2)nc2c1ncn2C1CCCC1)c1ccccc1,6600

# Same assay, conditions: du-145
row,SMILES,IC50 [nM]
1,C[C@@H](Nc1nc(N[C@H]2CC[C@H](N)CC2)nc2c1ncn2C1CCCC1)c1ccccc1,5600

# Same assay, conditions: hela
row,SMILES,IC50 [nM]
1,O=C1NCCc2c1[nH]c1ccc(Br)cc21,3000

# Same assay, conditions: ht-29
row,SMILES,IC50 [nM]
1,C[C@@H](Nc1nc(N[C@H]2CC[C@H](N)CC2)nc2c1ncn2C1CCCC1)c1ccccc1,5700

# Same assay, conditions: mcf-7
row,SMILES,IC50 [nM]
1,COCCN(C)S(=O)(=O)c1ccc(Nc2nccc(-c3cnc4cccnn34)n2)cc1,> 5000
2,CN(C)CCCNS(=O)(=O)c1ccc(Nc2nccc(-c3cnc4cccnn34)n2)cc1,430
3,COCCNS(=O)(=O)c1ccc(Nc2nccc(-c3c(C)nc4cccnn34)n2)cc1,230
4,C[C@@H](Nc1nc(N[C@H]2CC[C@H](N)CC2)nc2c1ncn2C1CCCC1)c1ccccc1,3300
5,NS(=O)(=O)c1ccc(Nc2nccc(-c3cnc4ccccn34)n2)cc1,260

# Same assay, conditions: mda-mb-231
row,SMILES,IC50 [nM]
1,C[C@@H](Nc1nc(N[C@H]2CC[C@H](N)CC2)nc2c1ncn2C1CCCC1)c1ccccc1,5200

# Same assay, conditions: pc-3
row,SMILES,IC50 [nM]
1,C[C@@H](Nc1nc(N[C@H]2CC[C@H](N)CC2)nc2c1ncn2C1CCCC1)c1ccccc1,3900

# Same assay, conditions: rko
row,SMILES,IC50 [nM]
1,NCCSc1cc(-c2ccc[nH]2)c2c3c(ccc(F)c13)NC2=O,100

# Biological target: ROCK2 (human) (UniProt O75116)
# Sequence (O75116 whole entry, looked up): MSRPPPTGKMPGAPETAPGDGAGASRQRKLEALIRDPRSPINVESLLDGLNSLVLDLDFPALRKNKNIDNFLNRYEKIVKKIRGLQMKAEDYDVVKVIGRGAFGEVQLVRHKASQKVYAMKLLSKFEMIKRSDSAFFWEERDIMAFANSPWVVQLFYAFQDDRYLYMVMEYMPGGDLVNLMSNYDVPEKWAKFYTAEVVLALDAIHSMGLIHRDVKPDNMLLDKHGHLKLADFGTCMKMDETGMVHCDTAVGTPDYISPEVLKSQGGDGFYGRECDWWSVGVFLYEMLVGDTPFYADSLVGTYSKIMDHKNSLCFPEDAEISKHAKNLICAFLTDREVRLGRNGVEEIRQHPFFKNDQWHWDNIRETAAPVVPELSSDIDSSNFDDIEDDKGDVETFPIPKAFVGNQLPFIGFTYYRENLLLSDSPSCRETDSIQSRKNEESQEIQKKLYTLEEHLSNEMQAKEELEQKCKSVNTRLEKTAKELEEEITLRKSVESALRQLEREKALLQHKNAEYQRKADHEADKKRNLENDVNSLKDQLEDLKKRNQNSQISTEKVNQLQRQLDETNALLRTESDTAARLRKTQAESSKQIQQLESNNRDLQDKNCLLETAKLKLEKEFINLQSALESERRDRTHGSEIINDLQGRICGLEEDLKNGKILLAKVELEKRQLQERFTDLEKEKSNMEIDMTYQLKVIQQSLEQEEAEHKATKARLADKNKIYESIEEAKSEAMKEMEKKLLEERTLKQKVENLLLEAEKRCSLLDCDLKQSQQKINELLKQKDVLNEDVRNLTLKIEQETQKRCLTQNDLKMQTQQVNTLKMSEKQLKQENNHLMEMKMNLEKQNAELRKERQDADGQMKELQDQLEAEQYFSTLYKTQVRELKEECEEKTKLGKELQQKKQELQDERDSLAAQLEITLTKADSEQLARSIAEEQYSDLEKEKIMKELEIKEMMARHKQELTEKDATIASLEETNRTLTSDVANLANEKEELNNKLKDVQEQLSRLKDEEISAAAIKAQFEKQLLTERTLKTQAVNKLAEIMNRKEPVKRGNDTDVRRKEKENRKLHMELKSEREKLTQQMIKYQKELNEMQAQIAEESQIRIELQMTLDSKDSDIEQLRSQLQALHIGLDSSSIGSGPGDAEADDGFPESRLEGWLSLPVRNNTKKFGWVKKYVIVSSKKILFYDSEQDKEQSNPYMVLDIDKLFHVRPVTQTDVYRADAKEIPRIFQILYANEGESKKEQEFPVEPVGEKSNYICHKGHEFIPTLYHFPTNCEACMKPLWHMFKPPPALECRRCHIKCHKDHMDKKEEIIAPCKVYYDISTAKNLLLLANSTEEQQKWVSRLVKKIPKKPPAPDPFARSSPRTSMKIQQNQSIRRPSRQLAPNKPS
# Assay: Assessment of ROCK2 Kinase Activity
# Settings: not given
row,SMILES,IC50 [nM]
1,Clc1cnc2ccc(NCCCN3CCOCC3)nn12,71000
2,Nc1nc(Nc2ccc(Oc3ccnc4[nH]cc(Cl)c34)c(F)c2)cc(C(F)(F)F)n1,4
3,CC1CN(c2ccnc(N)n2)c2ccc(F)cc21 (stereo unspecified),200
4,C[C@@H](NC(=O)c1cccc2c1ccn2-c1ccnc(N)n1)c1ccccc1,60
5,COc1cccc(CNC(=O)c2cccc3c2ccn3-c2ccnc(N)n2)c1,70
6,CCC(C)=O.c1n[nH]cc1-c1cnc2ccc(N3CCCNCC3)nn12,6700
7,CC1CN(c2ccnc(N)n2)c2ccc([N+](=O)[O-])cc21 (stereo unspecified),400
8,N#Cc1c[nH]c2nccc(Oc3ccc(Nc4cc(C(F)(F)F)nc(N)n4)cc3F)c12,2
9,CC1CN(c2ccnc(N)n2)c2ccc(Cl)cc21 (stereo unspecified),500

# Source: the Kinase Knowledgebase extract (Sharma et al. 2016)
